Literature values in patent US10736931B2, “Pharmaceutical compositions comprising plant extracts and methods for reducing duration of a common cold using same” (Matrixx Initiatives, Inc., priority 2014, dated 2020).

Target: acetylcholine esterase (Homo sapiens, UniProt P22303)
Conditions: ceramides from L. operculata; Feitosa et al. 2011

acetylcholine esterase, sequence (P22303 32-614): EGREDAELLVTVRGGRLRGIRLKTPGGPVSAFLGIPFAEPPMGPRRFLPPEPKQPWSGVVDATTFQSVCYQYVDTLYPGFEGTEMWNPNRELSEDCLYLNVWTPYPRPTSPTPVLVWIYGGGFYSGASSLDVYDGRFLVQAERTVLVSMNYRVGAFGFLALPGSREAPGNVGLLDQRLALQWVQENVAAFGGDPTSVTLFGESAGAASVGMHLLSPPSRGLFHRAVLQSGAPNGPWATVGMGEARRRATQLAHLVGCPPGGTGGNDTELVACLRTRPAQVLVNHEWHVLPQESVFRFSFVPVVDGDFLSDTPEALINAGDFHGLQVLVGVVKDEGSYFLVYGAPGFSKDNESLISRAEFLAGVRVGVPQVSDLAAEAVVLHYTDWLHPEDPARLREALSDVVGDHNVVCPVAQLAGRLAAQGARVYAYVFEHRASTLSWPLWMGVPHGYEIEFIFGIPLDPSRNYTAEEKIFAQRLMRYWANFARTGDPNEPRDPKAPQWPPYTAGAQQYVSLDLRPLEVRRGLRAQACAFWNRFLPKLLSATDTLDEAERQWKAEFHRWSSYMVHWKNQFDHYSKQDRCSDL

In the case of ceramides, the “acetylcholine esterase inhibitory effects” value is given as “high”.
